Where two headings read alike, the source gives them in different places.
Columns and labels:
RPE cells = assay: cells; settings: Homo sapiens, read-out: IC50 on RPE cells
NCI-H522 cells = assay: Time-lapse microscopy of cell death; format: cell-based, human; settings: for Time from initiation of ferroptosis until most/all cells were dead: CETZOLE-1 20 μM (most of the cells), HY-1 5 μM (all cells); for Start of ferroptosis after treatment: CETZOLE-1 20 μM, HY-1 5 μM
PC-12 cells = assay: MTT cytotoxicity on undifferentiated and differentiated PC-12 cells; format: cell-based; settings: MTT after 24 h of treatment
SH-SY5Y cells = assay: MTT cell viability assay, SH-SY5Y neuroblastoma cells; format: cell-based, human; settings: 0.5×, 1×, 2× IC50 of the controls on H522; HY-1 at 2.32 μM
[1] = test system: NCI-60 human tumor cell lines; assay: cells
[2] = test system: HDAC 1, 2, 3, 4, 6, and 8; settings: recombinant HDAC proteins
PC-3 [3] = assay: cells; settings: Homo sapiens, PC-3, read-out: GI50, PC-3
DU-145 [4] = assay: cells; settings: Homo sapiens, DU-145, read-out: GI50, DU-145
LOXIMVI [5] = assay: cells; settings: Homo sapiens, LOX IMVI, read-out: GI50, LOXIMVI
IGROV-1 [6] = assay: cells; settings: Homo sapiens, IGROV-1, read-out: GI50, IGROV-1
[7] = test system: lipid peroxides in NCI-H522 cells; assay: C11-BODIPY lipid peroxidation assay; format: cell-based, human; settings: NCI-H522, 10 μM, 6 h
Class I HDACs = settings: read-out: IC50 for Class I HDACs; recombinant HDAC proteins
SF-539 cell line = settings: read-out: GI50, SF-539; five-dose assay; ref public data base of NCI (NSC 759852); cited from earlier work
NCI-H23 cell line = settings: one-dose; ref public data base of NCI (NSC 759852); cited from earlier work
DU-145 [8] = settings: read-out: GI50, DU-145; five-dose assay; ref public data base of NCI (NSC 759852); cited from earlier work
LOXIMVI [9] = settings: read-out: GI50, LOXIMVI; five-dose assay; ref public data base of NCI (NSC 759852); cited from earlier work
RPMI-8226 = settings: read-out: GI50, RPMI-8226; five-dose assay; ref public data base of NCI (NSC 759852); cited from earlier work
IGROV-1 [10] = settings: read-out: GI50, IGROV-1; five-dose assay; ref public data base of NCI (NSC 759852); cited from earlier work
DU-145 cells = settings: one-dose; ref public data base of NCI (NSC 759852); cited from earlier work
NCI-H23 = settings: read-out: GI50, NCI-H23; five-dose assay; ref public data base of NCI (NSC 759852); cited from earlier work
HS578 = settings: read-out: GI50, HS578; five-dose assay; ref public data base of NCI (NSC 759852); cited from earlier work
PC-3 [11] = settings: read-out: GI50, PC-3; five-dose assay; ref public data base of NCI (NSC 759852); cited from earlier work

C#Cc1nc(C2=C(C)[C@@H](O)CC2)cs1 [CETZOLE-1]
IC50 (RPE cells): > 30 µM
Time from initiation of ferroptosis until most/all cells were dead (NCI-H522 cells): ≤ 8 h
Start of ferroptosis after treatment (NCI-H522 cells): approximately 12 h

C#Cc1nc(C(=O)NCCCCCCC(=O)OC)cs1 [FC-1, Methyl 7-(2-Ethynylthiazole-4-carboxamido)heptanoate]
Effect on PC-12 cells (differentiated and undifferentiated) (PC-12 cells): resistant
Effect on neuronal cells (SH-SY5Y viability, neurotoxicity) (SH-SY5Y cells): significant neurotoxicity

O=C(CCCCCCNC(=O)c1csc(Br)n1)NO [HC-1, 2-Bromo-N-(7-(hydroxyamino)-7-oxoheptyl)thiazole-4-carboxamide]
GI50 ([1]; read-out: Average GI50): 1.51 µM
Effect on neuronal cells (SH-SY5Y viability, neurotoxicity) (SH-SY5Y cells): very mild toxicity

O=C(/C=C/C=C/c1csc(Br)n1)NO [HC-4, (2E,4E)-5-(2-Bromothiazol-4-yl)-N-hydroxypenta-2,4-dienamide]
HDAC inhibitory activity [2]: poor HDAC inhibitory activity

C#Cc1nc(C(=O)NCCCCCCC(=O)NO)cs1 [HY-1, 2-Ethynyl-N-(7-(hydroxyamino)-7-oxoheptyl)thiazole-4-carboxamide]
GI50 (PC-3 [3]): 2 µM
Time from initiation of ferroptosis until most/all cells were dead (NCI-H522 cells): ≤ 2 h
Start of ferroptosis after treatment (NCI-H522 cells): 8 h
GI50 ([1]; read-out: Average GI50): 0.85 µM
GI50 ([1]; read-out: GI50 values as low as (best cell line)): 0.02 µM
Effect on PC-12 cells (differentiated and undifferentiated) (PC-12 cells): behaved like the HDAC control HC-1
GI50 (DU-145 [4]): 0.36 µM
GI50 (LOXIMVI [5]): 0.02 µM
GI50 (IGROV-1 [6]): 0.57 µM
Lipid peroxide levels (C11-BODIPY 581/591) [7]: increased levels of lipid peroxides
Effect on neuronal cells (SH-SY5Y viability, neurotoxicity) (SH-SY5Y cells): no neurotoxic effects

C#Cc1nc(/C=C\CCCCCC(=O)NO)cs1 [HY-2, (Z)-8-(2-Ethynylthiazol-4-yl)-N-hydroxyoct-7-enamide]
GI50 ([1]; read-out: Average GI50): 2.18 µM

C#Cc1nc(/C=C/CCCCCC(=O)NO)cs1 [HY-3, (E)-8-(2-Ethynylthiazol-4-yl)-N-hydroxyoct-7-enamide]
GI50 ([1]; read-out: Average GI50): 3.39 µM

C#Cc1nc(/C=C/C=C/C(=O)NO)cs1 [HY-4, (2E,4E)-5-(2-Ethynylthiazol-4-yl)-N-hydroxypenta-2,4-dienamide]
HDAC inhibitory activity [2]: poor HDAC inhibitory activity
Effect on neuronal cells (SH-SY5Y viability, neurotoxicity) (SH-SY5Y cells): not showing attenuated neurotoxicity

C#Cc1nc(/C=C/C(=O)NO)cs1 [HY-5, (E)-3-(2-Ethynylthiazol-4-yl)-N-hydroxyacrylamide]
GI50 ([1]; read-out: Average GI50): 2.47 µM
IC50 (Class I HDACs): 0.89 to 1.1 µM

COC(=O)CCCCCCNC(=O)c1csc(Br)n1 [NC-1, Methyl 7-(2-Bromothiazole-4-carboxamido)heptanoate]
Effect on neuronal cells (SH-SY5Y viability, neurotoxicity) (SH-SY5Y cells): no effect

O=C(CCCCCCC(=O)Nc1ccccc1)NO [SAHA]
GI50 (SF-539 cell line): 2 µM
Growth %, NCI-H23 (NCI-H23 cell line): 3.30%
GI50 (DU-145 [8]): 1.25 µM
Time after treatment at which cells were still alive (NCI-H522 cells; SAHA 5 μM): ≥ 60 h
GI50 (LOXIMVI [9]): 1.25 µM
GI50 (RPMI-8226): 1.5 µM
GI50 (IGROV-1 [10]): 2 µM
Growth %, DU-145 (DU-145 cells): 3.5%
GI50 (NCI-H23): 2 µM
GI50 (HS578): 2 µM
GI50 (PC-3 [11]): 1.58 µM

From article PMC10257520 (Journal of medicinal chemistry, 2022)
